For orientation: IC50 means the concentration that inhibits the measured activity by half.

Where “and” joins values, the source holds several entries; their conditions need not be identical. Equal entries are not always repeated. Structures can show the parent of a compound that is named as a salt. Where two headings read alike, the source gives them in different places.

The subject of assay [1] is SUDHL5. Briefly: Antiproliferation assay SUDHL5 (Assay 7). Type of assay: cell-based. Conditions: SUDHL5 cells, CellTiter-Glo, median, read-out: IC50 Antiproli SUDHL5 [M] (median). Put shortly: (§1)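 Proliferation is determined by CellTiter-Glo luminescence following 72 h incubation with compound at 37 °C, relative to a time-zero plate measured at plating.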
In general terms: In ATP-based viability assays light output follows the ATP content of the culture.

For assay [2], the target named is BCL-XL (Homo sapiens (Human), UniProt Q07817). Kind of assay: Protein-protein interaction assay BCL-XL/Bad BH3 peptide (BCL-XL assay), TR-FRET. The following applies: median. Type of assay: binding. Here is the method:
Assay 2 Protein-Protein Interaction Assay: BCL-XL/Bad BH3 Peptide (BCL-XL Assay)
The dose-dependent inhibition by the compounds described in this invention of the interaction between BCL-XL and the BH3 domain of Bad (both human) was determined using a steady state binding competition assay with time-resolved fluorescence energy transfer (TR-FRET) readout. For that purpose BCL-XL (amino acids 1-212, C-terminal fused to a hexahistidine (6× His) tag (SEQ ID 3) and a synthetic Bad BH3-derived peptide of sequence Biotin-PEG2-PEG2-NLWAAQRYGRELRR-Nle-SDEFVDSFKK-amide (SEQ ID 4) served as protein receptor and tracer ligand respectively. The recombinant BCL-XL protein (expressed in Ecol) was purchased from BPS Bioscience (San Diego, Calif., USA). The Bad BH3-derived peptide can be obtained from e.g. Biosyntan (Berlin, Germany).
In the assay 11 different concentrations of each compound (0.1 nM, 0.33 nM, 1.1 nM, 3.8 nM, 13 nM, 44 nM, 0.15 μM, 0.51 μM, 1.7 μM, 5.9 μM and 20 μM) were typically measured as duplicates in the same microtiter plate. For that, 100-fold concentrated DMSO solutions were prepared by serial dilutions (1:3.4) of a 2 mM stock solution in a clear, 384-well microtiter plate (Greiner Bio-One, Frickenhausen, Germany). From there, 50 nl were transferred in a dark test plate (Greiner Bio-One, Frickenhausen, Germany). The assay was initiated by addition of 2 μl of a 2,5-fold concentrated His-BCL-XL solution (usually for a 1 nM end concentration in 5 μl reaction volume) in aqueous assay buffer [50 mM Tris/HCl pH 7, 100 mM sodium chloride (NaCl), 50 μM potassium fluoride (KF), 0.005% Tween-20, 2 mM DTT, 0.1% bovine gamma globulin (BGG)] to the compounds in the assay plate. This was followed by a 10-minute incubation step at 22° C. for pre-equilibration of the putative complex between His-BCL-XL and the compounds. After that, 3 μl of a 1.67-fold concentrated solution (in assay buffer) consisting of Bad BH3-derived peptide (1 nM end concentration) and TR-FRET detection reagents [1.67 nM anti-His-Eu cryptate and 1.67 nM streptavidin-XL665 (both from Cisbio Bioassays, Codolet, France)], were added.
The mixture was incubated in the dark for one hour at 22° C. and then overnight at 4° C. The formation of BCL-XL/Bad complexes was determined by measuring the resonance energy transfer of the anti-His-Eu-cryptate antibody to the streptavidin-XL665 present in the reaction. For that purpose, the fluorescence emission at 620 nm and 665 nm after excitation at 330-350 nm was measured in a TR-FRET measuring instrument, for instance a Rubystar or a Pherastar (both from BMG Lab Technologies, Offenburg, Germany) or a Viewlux (Perkin-Elmer). The ratio of the emission at 665 nm and at 622 nm was used as indicator of the amount of BCL-XL/Bad complexes present.
The resulting data (ratio) were normalized, taking 0% inhibition as the mean value of control measurements (usually 32 data points) where all reagents were included. In this case 50 nl DMSO were used instead of compounds. A 100% inhibition corresponded to the mean value of control measurements (usually 32 data points) where all reagents except BCL-XL were included. IC50 values were determined by regression analysis based on a 4 parameter equation (minimum, maximum, IC50, Hill; Y=Max+(Min−Max)/(1+(X/IC50)^Hill) using the Screener Software (Genedata).

For assay [3], the system named is AMO-1. Kind of assay: Antiproliferation assay AMO-1 (Assay 7). Type of assay: cell-based. Conditions: AMO-1 cells, CellTiter-Glo, single determinations, read-out: IC50 Antiproli AMO-1. Put shortly: as §1

Sequence of BCL-XL (Q07817 1-212): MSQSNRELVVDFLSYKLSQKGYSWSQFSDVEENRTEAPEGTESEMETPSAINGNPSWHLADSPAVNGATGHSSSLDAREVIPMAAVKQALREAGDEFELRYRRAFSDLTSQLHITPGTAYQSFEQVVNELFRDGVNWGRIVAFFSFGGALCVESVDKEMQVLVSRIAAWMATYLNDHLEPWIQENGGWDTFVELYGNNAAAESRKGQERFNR

Regarding `CCc1c2c(nn1C)COCCCCn1c(C(=O)O)c(CCCOc3cccc4cc(F)ccc34)c3ccc(F)c-2c31` (single isomer, unassigned; enantiomer 1) [Example 22, 3-ethyl-4-fluoro-7-{3-[(6-fluoronaphthalen-1-yl)oxy]propyl}-2-methyl-2,10,11,12,13,15-hexahydropyrazolo[4′,3′:9,10][1,6]oxazacycloundecino[8,7,6-hi]indole-8-carboxylic acid-N-ethylethanamine salt (enantiomer 1)], the IC50 in assay [1] (72 h) stood at 2.7e-07 M.
In the case of `Cc1nn(C)c2c1-c1c(F)ccc3c(CCCOc4cccc5ccccc45)c(C(=O)O)n(c13)CCCCOC2` (racemic) [Example 10, (rac)-13-fluoro-10,12-dimethyl-1-(3-(naphthalen-1-yloxy)propyl)-4,5,6,7,9,10-hexahydro-pyrazolo[4′,3′:9,10][1]oxa[6]azacycloundecino[8,7,6-hi]indole-2-carboxylic acid], the IC50 in assay [1] (Homo sapiens, SU-DHL-5, 72 h) is 1.8e-06 M; in assay [2] it was above 20000 nM.
Regarding `CCc1c2c(nn1C)CN(C)CCCCn1c(C(=O)O)c(CCCOc3cccc4cc(F)ccc34)c3ccc(F)c-2c31` (racemic) [Example 53, (rac)-3-ethyl-4-fluoro-7-{3-[(6-fluoro-1-naphthyhoxy]propyl}-2,14-dimethyl-10,11,12,13,14,15-hexahydro-2H-pyrazolo[3′,4′:8,9][1,6]diazacycloundecino[10,11,1-hi]indole-8-carboxylic acid], the IC50 in assay [1] (Homo sapiens, SU-DHL-5, 72 h) was 3.7e-07 M; in assay [2], above 20000 nM.
Take `CCc1c2c(nn1C)COCCCCn1c(C(=O)O)c(CCCOc3ccc(F)c4ccccc34)c3ccc(F)c-2c31` (single isomer, unassigned; enantiomer 1) [Example 27, 3-ethyl-4-fluoro-7-{3-[(4-fluoronaphthalen-1-yl)oxy]propyl}-2-methyl-2,10,11,12,13,15-hexahydropyrazolo[4′,3′:9,10][1,6]oxazacycloundecino[8,7,6-hi]indole-8-carboxylic acid-N-ethylethanamine salt (enantiomer 1)]: the concentration for half-maximal inhibition (IC50) in assay [1] (72 h) was 6.2e-07 M; in assay [3] (72 h), 1330 nM and 2530 nM.
As to `CCc1nn(C)c2c1-c1c(F)ccc3c(CCCOc4cccc5ccccc45)c(C(=O)O)n(c13)CCCCOC2` (racemic) [Example 37, (rac)-12-ethyl-13-fluoro-10-methyl-1-(3-(naphthalen-1-yloxy)propyl)-4,5,6,7,9,10-hexahydro-pyrazolo[4′,3′:9,10][1]oxa[6]azacycloundecino[8,7,6-hi]indole-2-carboxylic acid], the IC50 in assay [1] (Homo sapiens, SU-DHL-5, 72 h) was 1.6e-06 M; in assay [2], above 20000 nM.
On the same counts, the results for `Cc1cc(OCCCc2c(C(=O)O)n3c4c(c(F)ccc24)-c2c(nn(C)c2C)COCCCC3)cc(C)c1Cl` (racemic) [Example 20, (rac)-1-(3-(4-chloro-3,5-dimethylphenoxy)propyl)-13-fluoro-11,12-dimethyl-4,5,6,7,9,11-hexahydropyrazolo[4′,3′:9,10][1]oxa[6]azacycloundecino[8,7,6-hi]indole-2-carboxylic acid] are 1.1e-06 M and above 20000 nM.
With `Cc1c2c(nn1C)COC/C=C\Cn1c(C(=O)O)c(CCCOc3cccc4ccccc34)c3ccc(F)c-2c31` (racemic) [Example 1, (rac)-(11Z)-4-fluoro-2,3-dimethyl-7-[3-(naphthalen-1-yloxy)propyl]-2,10,13,15-tetrahydro-pyrazolo[4′,3′:9,10][1,6]oxazacycloundecino[8,7,6-hi]indole-8-carboxylic acid], the IC50 in assay [1] (Homo sapiens, SU-DHL-5, 72 h) is 9e-07 M; in assay [2], above 20000 nM.
Take `CCc1c2c(nn1C)COCCCCn1c(C(=O)O)c(CCCOc3cccc4ccccc34)c3ccc(F)c-2c31` (single isomer, unassigned; enantiomer 1) [Example 7, 3-ethyl-4-fluoro-2-methyl-7-{3-[(naphthalen-1-yl)oxy]propyl}-2,10,11,12,13,15-hexahydro-pyrazolo[4′,3′:9,10][1,6]oxazacycloundecino[8,7,6-hi]indole-8-carboxylic acid-N-ethylethanamine salt (enantiomer 1)]: the IC50 in assay [1] (72 h) was 7.5e-07 M; in assay [3] (Homo sapiens, AMO1, 72 h), 1910 nM.
On to `CCc1c2c(nn1C)COCCCCn1c(C(=O)O)c(CCCOc3cccc4cc(F)ccc34)c3ccc(F)c-2c31` (single isomer, unassigned; enantiomer 2) [Example 23, 3-ethyl-4-fluoro-7-{3-[(6-fluoronaphthalen-1-yl)oxy]propyl}-2-methyl-2,10,11,12,13,15-hexahydropyrazolo[4′,3′:9,10][1,6]oxazacycloundecino[8,7,6-hi]indole-8-carboxylic acid-N-ethylethanamine salt (enantiomer 2)], for which the IC50 in assay [1] (72 h) was determined as 1.4e-06 M.
Regarding `Cc1c2c(nn1C)COCCCCn1c(C(=O)O)c(CCCOc3cccc4ccccc34)c3ccc(F)c-2c31` (single isomer, unassigned; enantiomer 1) [Example 3, 4-fluoro-2,3-dimethyl-7-[3-(naphthalen-1-yloxy)propyl]-2,10,11,12,13,15-hexahydropyrazolo-[4′,3′:9,10][1,6]oxazacycloundecino[8,7,6-hi]indole-8-carboxylic acid-N-ethylethanamine salt (enantiomer 1)], the IC50 in assay [1] (72 h) turned out to be 6.4e-07 M; in assay [3] (Homo sapiens, AMO1, 72 h), 2000 nM.
For `Cc1c2c(nn1C)COCCCCn1c(C(=O)O)c(CCCOc3cccc4ccccc34)c3ccc(F)c-2c31` (racemic) [Example 2, (rac)-4-fluoro-2,3-dimethyl-7-[3-(naphthalen-1-yloxy)propyl]-2,10,11,12,13,15-hexahydro-pyrazolo[4′,3′:9,10][1,6]oxazacycloundecino[8,7,6-hi]indole-8-carboxylic acid], the IC50 in assay [1] (Homo sapiens, SU-DHL-5, 72 h) worked out at 1.4e-06 M; in assay [3] (72 h, listed as 02), 1910 nM; in assay [3] (Homo sapiens, AMO1, 72 h) it was 2460 nM.
With `Cc1c2c(nn1C)COCCCCn1c(C(=O)O)c(CCCOc3cccc4cc(F)ccc34)c3ccc(F)c-2c31` (single isomer, unassigned; enantiomer 1) [Example 13, 4-fluoro-7-{3-[(6-fluoronaphthalen-1-yl)oxy]propyl}-2,3-dimethyl-2,10,11,12,13,15-hexahydro-pyrazolo[4′,3′:9,10][1,6]oxazacycloundecino[8,7,6-hi]indole-8-carboxylic acid-N-ethylethanamine salt (enantiomer 1)], the concentration for half-maximal inhibition (IC50) in assay [1] (72 h) is 2.9e-07 M; in assay [3] (72 h), 747 nM and 564 nM.
On to `CCc1nn(C)c2c1-c1c(F)ccc3c(CCCOc4cccc5cc(F)ccc45)c(C(=O)O)n(c13)CCCCOC2` (single isomer, unassigned; enantiomer 1) [Example 39, 3-ethyl-4-fluoro-7-{3-[(6-fluoronaphthalen-1-yl)oxy]propyl}-1-methyl-1,10,11,12,13,15-hexahydropyrazolo[4′,3′:9,10][1,6]oxazacycloundecino[8,7,6-hi]indole-8-carboxylic acid-N-ethylethanamine salt (enantiomer 1)], for which the IC50 came out at 6.8e-07 M in assay [1] (72 h) and 1720 nM in assay [3] (72 h).

Values taken from patent US11286263B2, “Macrocyclic fluorine substituted indole derivatives” (The Broad Institute, Inc., priority 2017, dated 2022).
